Patent US20100055218A1, “NOVEL COMPOSITIONS” (priority 2006, published 2010)

Experiments:
RAW267.7 [1] = assay: Inhibition of nitric oxide production in LPS-activated macrophages (nitrite, Griess reaction); type: cell-based, murine; settings: Mus musculus, Macrophage; for IC50: read-out: IC50 Nitric Oxide
Method: (§1) The anti-inflammatory effects of rosehip and ligustilide, hydroxytyrosol, magnolol, and genistein were evaluated in activated macrophages by determining the inhibition of the synthesis of nitric oxide and/or proinflammatory prostaglandins (PG). PGE2 plays a critical role in the inflammation process, while nitric oxide (NO) is a hallmark of inflammation in various chronic inflammatory diseases including various forms of arthritis, gastro-intestinal diseases and metabolic syndrome.
(§2) Biologically standardized rosehip powder was obtained from Hyben Vital International, Langeland, Denmark, and dissolved in DMSO. Ligustilide and genistein was synthesized by DSM Nutritional Products. Hydroxytyrosol was from Cayman Chemicals or synthesized by DSM Nutritional Products. Magnolol was obtained from Apin Chemicals Ltd, UK. According to the suppliers' data sheet all products were >90% pure and obtained in powder form. […] The anti-inflammatory effects of compounds was tested in cellular assays using a murine macrophage indicator cell line, RAW267.7, which was purchased from American Type Culture Collection, (ATCC) and cultured in DMEM according to the protocol provided by ATCC. Cells (˜50'000/well) were seeded into flat-bottomed microtiter plates and cultured for one day. Cells were then starved in complete medium containing 0.25% fetal calf serum (FCS) (D-025). After overnight culture, medium was removed and replaced by 100 μL of D-025 containing the test compounds at twice the final concentration. Subsequently, 100 μL of D-025 containing 2 μg/ml lipopolysaccharide (LPS) was added (i.e. final LPS concentration of 1 μg/ml) and the cells were cultured for 24 hours. Substances were usually tested in a concentration range from 0.2 to 50 μM in two-fold dilution steps. In the case of rosehip extract, the concentration range was from 3-2000 μg/ml. Concentrations of nitrite which was generated from nitric oxide released by cells were determined by the Griess reaction (see e.g Imai et al. Biochem Biophys Res Comm, 197, 105 [1993]) using sodium nitrite as standard. Briefly, 50 μl of supernatant was mixed with Griess reagent 1 (25 μL) and Griess reagent 2 (25 μL), centrifuged and the optical density at 540 nm determined. PGE2 secreted into the cell culture medium was determined by EIA obtained from Cayman Chemicals (Ann Harbor, Wis., USA) and used according to the manufacturer's instructions. IC50 values were calculated using a […] least-square fitting equation [y=A+((B−A)/(1+((C−x)̂D))] for best-fit curves (Excel fit software program).

RAW267.7 [2] = assay: Inhibition of PGE2 production in LPS-activated macrophages (EIA); type: cell-based, murine; settings: Mus musculus, Macrophage; for IC50: read-out: IC50 PGE2
Method: as §1, §2

[3] = single substance, LPS 1 μg/ml, 24 hours
[4] = 6.25 μmol/L, read-out: % inhibition of NO production

| IC50 (RAW267.7 [1]; [3]) [µM] | IC50 (RAW267.7 [2]; [3]) [µM] | Structure (SMILES) | inhibition at 25 µM (RAW267.7 [1]; 25 μmol/L, read-out: % inhibition of NO production) [%] | inhibition at 6.25 µM (RAW267.7 [1]; [4]) [%] | IC50 (RAW267.7 [1]; 24 h) [µM] | inhibition at 6.25 µM (RAW267.7 [1]; read-out: % inhibition of NO production) [%] | IC50 (RAW267.7 [2]; 24 h) [µM] | inhibition at 6.25 µM (RAW267.7 [2]; read-out: % inhibition of PGE2 production) [%] | inhibition at 12.5 µM (RAW267.7 [1]; 12.5 μmol/L, read-out: % inhibition of NO production) [%] |
| --- | --- | --- | --- | --- | --- | --- | --- | --- | --- |
| 37 ± 2 | 5 ± 1 | O=c1c(-c2ccc(O)cc2)coc2cc(O)cc(O)c12 [Genistein, 4′,5,7-trihydroxyisoflavone] | 24 | – | – | – | – | – | – |
| 15 ± 1 | 10 ± 2 | CCC/C=C1\OC(=O)C2=C1CCC=C2 [Ligustilide, ligustilide] | – | 5 | – | – | – | – | – |
| – | – | C=CCc1ccc(O)c(-c2cc(CC=C)ccc2O)c1 [Magnolol, 5,5′-Diallyl-2,2′-biphenyldiol] | – | – | 10 ± 2 | 2 | 2 ± 1 | 57 | – |
| 28 ± 2 | 24 ± 3 | OCCc1ccc(O)c(O)c1 [OH-Tyrosol, 3,4 dihydroxyphenylethanol] | – | -5 | – | – | – | – | 9 |
